Numbers after ± are expanded uncertainties.
Tests used:
[1] = 101 kPa, Liquid; for speed of sound: Linear variable-path acoustic interferometer; for mass density: Vibrating tube method
[2] = xn = mol fraction of the nth substance listed; settings: 101 kPa, Liquid, x2 = 0; for speed of sound: Linear variable-path acoustic interferometer; for mass density: Vibrating tube method

C1CCCCC1 [cyclohexane]
[1]
Settings | mass density [kg/m3] | speed of sound [m/s]
293.15 K | 778.55 ± 0.12 | 1278.6 ± 1.4
298.15 K | 773.84 ± 0.12 | 1253.9 ± 1.4
303.15 K | 769.11 ± 0.12 | 1229.3 ± 1.3
308.15 K | 764.35 ± 0.12 | 1205.1 ± 1.3
313.15 K | 759.56 ± 0.13 | 1181 ± 1.3
318.15 K | 754.74 ± 0.13 | 1157.3 ± 1.3
323.15 K | 749.89 ± 0.13 | 1133.7 ± 1.3

NC1CCCCC1 [cyclohexylamine]
[1]
Settings | mass density [kg/m3] | speed of sound [m/s]
293.15 K | 867.39 ± 0.12 | 1430.5 ± 1.6
298.15 K | 862.85 ± 0.12 | 1408.8 ± 1.6
303.15 K | 858.31 ± 0.12 | 1387.3 ± 1.5
308.15 K | 853.76 ± 0.12 | 1366 ± 1.5
313.15 K | 849.23 ± 0.13 | 1344.5 ± 1.5
318.15 K | 844.68 ± 0.13 | 1323.1 ± 1.5
323.15 K | 840.14 ± 0.13 | 1301.8 ± 1.5

C1CCCCC1 [cyclohexane] + NC1CCCCC1
[2]
Settings | mass density [kg/m3] | speed of sound [m/s]
293.15 K | 778.55 ± 0.12 | 1278.6 ± 1.4
298.15 K | 773.84 ± 0.12 | 1253.9 ± 1.4
303.15 K | 769.11 ± 0.12 | 1229.3 ± 1.3
308.15 K | 764.35 ± 0.12 | 1205.1 ± 1.3
313.15 K | 759.56 ± 0.13 | 1181 ± 1.3
318.15 K | 754.74 ± 0.13 | 1157.3 ± 1.3
323.15 K | 749.89 ± 0.13 | 1133.7 ± 1.3

c1ccccc1 [benzene]
[1]
Settings | mass density [kg/m3] | speed of sound [m/s]
293.15 K | 878.95 ± 0.08 | 1322.7 ± 1.4
298.15 K | 873.61 ± 0.08 | 1299.3 ± 1.4
303.15 K | 868.25 ± 0.08 | 1276 ± 1.4
308.15 K | 862.88 ± 0.09 | 1252.8 ± 1.4
313.15 K | 857.48 ± 0.09 | 1229.8 ± 1.3
318.15 K | 852.08 ± 0.09 | 1207 ± 1.3
323.15 K | 846.65 ± 0.09 | 1184.5 ± 1.3

c1ccccc1 [benzene] + NC1CCCCC1
[2]
Settings | mass density [kg/m3] | speed of sound [m/s]
293.15 K | 878.95 ± 0.08 | 1322.7 ± 1.4
298.15 K | 873.61 ± 0.08 | 1299.3 ± 1.4
303.15 K | 868.25 ± 0.08 | 1276 ± 1.4
308.15 K | 862.88 ± 0.09 | 1252.8 ± 1.4
313.15 K | 857.48 ± 0.09 | 1229.8 ± 1.3
318.15 K | 852.08 ± 0.09 | 1207 ± 1.3
323.15 K | 846.65 ± 0.09 | 1184.5 ± 1.3
